Assay results published in publication PMC2970651 (Bioorganic & medicinal chemistry, 2010).
Where two headings read alike, the source gives them in different places.

Columns and labels:
[1] = tested on: maximal electroshock seizure (generalized tonic-clonic seizures); assay: Maximal Electroshock Seizure; type: in vivo, mice; details: i.p.; for protection in the MES test in mice at 100 mg/kg (in words) / MES protection, animals protected/animals tested at 0.5 h: mice; for MES protection, animals protected/animals tested at 0.5 h: 100 mg/kg (stated for 19 and 20)
human Nav1.2 [2] = molecular target: T1, human Nav1.2 (Homo sapiens, UniProt Q99250); type: cell-based
mice = assay: Acute toxicity, minimal motor impairment; type: in vivo; details: i.p.
[3] = tested on: maximal electroshock seizure (generalized tonic-clonic seizures); assay: MES test, oral administration to rats; type: in vivo; details: 30 mg/kg
human Nav1.2 [4] = molecular target: T1, human Nav1.2; details: cited from earlier work

T1 sequence (Q99250 whole entry): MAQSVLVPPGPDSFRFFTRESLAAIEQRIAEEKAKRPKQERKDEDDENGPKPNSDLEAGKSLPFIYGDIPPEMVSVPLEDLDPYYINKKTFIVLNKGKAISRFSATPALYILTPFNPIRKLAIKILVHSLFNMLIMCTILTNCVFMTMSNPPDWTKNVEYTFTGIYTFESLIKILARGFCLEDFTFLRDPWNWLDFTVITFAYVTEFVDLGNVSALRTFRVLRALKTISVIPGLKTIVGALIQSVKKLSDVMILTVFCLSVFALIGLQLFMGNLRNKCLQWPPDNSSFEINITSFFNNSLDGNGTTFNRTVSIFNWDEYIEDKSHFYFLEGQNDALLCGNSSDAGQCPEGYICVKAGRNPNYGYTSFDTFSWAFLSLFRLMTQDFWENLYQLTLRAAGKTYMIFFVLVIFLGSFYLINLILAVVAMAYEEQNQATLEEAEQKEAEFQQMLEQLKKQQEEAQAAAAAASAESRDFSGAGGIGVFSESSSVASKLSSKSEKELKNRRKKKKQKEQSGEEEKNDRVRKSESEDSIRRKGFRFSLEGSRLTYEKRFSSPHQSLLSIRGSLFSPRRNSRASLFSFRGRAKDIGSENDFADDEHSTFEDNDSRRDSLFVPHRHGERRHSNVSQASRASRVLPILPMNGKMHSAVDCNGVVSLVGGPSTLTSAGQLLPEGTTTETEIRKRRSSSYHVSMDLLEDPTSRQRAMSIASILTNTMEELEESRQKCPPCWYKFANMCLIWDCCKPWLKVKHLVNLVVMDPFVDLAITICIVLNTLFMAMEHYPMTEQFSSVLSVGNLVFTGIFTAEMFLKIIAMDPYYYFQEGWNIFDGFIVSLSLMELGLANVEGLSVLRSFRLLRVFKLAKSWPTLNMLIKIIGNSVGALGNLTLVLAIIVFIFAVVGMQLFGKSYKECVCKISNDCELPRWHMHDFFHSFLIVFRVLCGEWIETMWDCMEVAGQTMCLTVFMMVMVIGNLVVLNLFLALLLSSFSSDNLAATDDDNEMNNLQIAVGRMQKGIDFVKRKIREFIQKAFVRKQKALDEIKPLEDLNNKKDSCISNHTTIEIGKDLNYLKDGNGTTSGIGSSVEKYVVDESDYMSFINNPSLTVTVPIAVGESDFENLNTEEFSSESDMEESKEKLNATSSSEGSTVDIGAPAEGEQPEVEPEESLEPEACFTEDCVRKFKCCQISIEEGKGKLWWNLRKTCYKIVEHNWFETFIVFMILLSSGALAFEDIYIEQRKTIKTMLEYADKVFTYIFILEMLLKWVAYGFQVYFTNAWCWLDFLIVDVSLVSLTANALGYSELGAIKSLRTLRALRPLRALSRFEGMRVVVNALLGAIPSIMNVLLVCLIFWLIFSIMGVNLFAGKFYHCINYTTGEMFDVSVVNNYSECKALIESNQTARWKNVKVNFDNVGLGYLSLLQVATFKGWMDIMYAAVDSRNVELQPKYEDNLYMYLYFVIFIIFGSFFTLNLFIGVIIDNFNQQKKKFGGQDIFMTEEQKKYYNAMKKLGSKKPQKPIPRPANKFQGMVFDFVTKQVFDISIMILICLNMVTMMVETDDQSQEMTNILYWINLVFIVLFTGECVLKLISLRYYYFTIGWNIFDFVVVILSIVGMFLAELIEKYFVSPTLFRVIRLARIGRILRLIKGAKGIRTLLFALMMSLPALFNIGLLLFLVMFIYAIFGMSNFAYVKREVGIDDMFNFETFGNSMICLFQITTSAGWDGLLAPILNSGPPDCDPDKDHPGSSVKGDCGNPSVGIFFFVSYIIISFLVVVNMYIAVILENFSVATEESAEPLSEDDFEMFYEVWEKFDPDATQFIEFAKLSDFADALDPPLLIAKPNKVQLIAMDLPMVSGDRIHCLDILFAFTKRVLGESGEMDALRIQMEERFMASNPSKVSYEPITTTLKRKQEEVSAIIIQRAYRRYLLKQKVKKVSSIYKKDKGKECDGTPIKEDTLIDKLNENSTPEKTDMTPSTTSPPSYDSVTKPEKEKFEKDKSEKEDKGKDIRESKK

Q: Which “protection in the MES test in mice at 100 mg/kg (in words)” value (“protection in the MES test in mice” below) [1] does the source give for `Clc1cccc(-c2nc(-c3ccccc3)c[nH]2)c1` [Compound 12] here?
A: The value was “Some protection”.

Q: Which “action on hNaV1.2 current at 10 μM” value (human Nav1.2 [2]) does the source give for `COc1ccc(-c2nc(-c3ccccc3)c[nH]2)cc1` [Compound 13] here?
A: The value was 30.1%.

Q: With `O=[N+]([O-])c1ccc(-c2nc(-c3ccccc3)c[nH]2)cc1` [Compound 15] as the compound, how does the “protection in the MES test in mice” value [1] read?
A: The value was “Some protection”.

Q: With `O=[N+]([O-])c1cccc(-c2nc(-c3ccccc3)c[nH]2)c1` [Compound 16] as the compound, how does the “MES protection, animals protected/animals tested at 0.5 h” value [1] read?
A: Its value is 2/3.

Q: What does the source list for `FC(F)(F)c1ccc(-c2nc(-c3ccccc3)c[nH]2)cc1` [Compound 17]?
A: MES protection, animals protected/animals tested at 0.25 h ([1]; 0.25 h, text says rats, Supplementary Data Table 1): 2/3; dose up to which no toxicity was observed (mice): 500 mg/kg; action on hNaV1.2 current at 10 μM (human Nav1.2 [2]): 22.7%; fold greater potency for hNav1.2 than phenytoin (human Nav1.2 [2]; ratio of IC50 values): 4 fold

Q: Which results are given for `Clc1ccc(-c2c[nH]c(-c3ccccc3)n2)cc1` [Compound 19]?
A: MES protection, animals protected/animals tested at 0.5 h [1]: 3/3; ability to prevent seizure spread in the MES test after oral administration (in words) [3]: not able to prevent seizure spread

Q: With `Clc1cccc(-c2c[nH]c(-c3ccccc3)n2)c1` [Compound 20] as the compound, how does the “MES protection, animals protected/animals tested at 0.5 h” value [1] read?
A: Its value is 3/3.

Q: And the “dose up to which no toxicity was observed” value (mice)?
A: The value was 500 mg/kg.

Q: What about the “action on hNaV1.2 current at 10 μM” value (human Nav1.2 [2]) of the same compound?
A: Its value is 16.8%.

Q: With `COc1ccc(-c2c[nH]c(-c3ccccc3)n2)cc1` [Compound 21] as the compound, how does the “ability to prevent seizure spread in the MES test after oral administration (in words)” value (shortened to “ability to prevent seizure spread”) [3] read?
A: Its value is “not able to prevent seizure spread”.

Q: For `COc1cccc(-c2c[nH]c(-c3ccccc3)n2)c1` [Compound 22], which “ability to prevent seizure spread” value [3] is on record?
A: The value was “not able to prevent seizure spread”.

Q: With `O=[N+]([O-])c1ccc(-c2c[nH]c(-c3ccccc3)n2)cc1` [Compound 23] as the compound, how does the “protection in the MES test in mice” value [1] read?
A: The value was “Some protection”.

Q: Which “MES protection, animals protected/animals tested at 0.5 h” value [1] does the source give for `O=[N+]([O-])c1cccc(-c2c[nH]c(-c3ccccc3)n2)c1` [Compound 24] here?
A: The value was 2/3.

Q: And the “ability to prevent seizure spread” value [3]?
A: The value was “not able to prevent seizure spread”.

Q: For `FC(F)(F)c1ccc(-c2c[nH]c(-c3ccccc3)n2)cc1` [Compound 25], which “protection in the MES test in mice” value [1] is on record?
A: Its value is “Some protection”.

Q: With `FC(F)(F)c1cccc(-c2c[nH]c(-c3ccccc3)n2)c1` [Compound 26] as the compound, how does the “protection in the MES test in mice” value [1] read?
A: Its value is “Some protection”.

Q: With `FC(F)(F)c1cccc(-c2c[nH]c(-c3cccc(C(F)(F)F)c3)n2)c1` [Compound 29] as the compound, how does the “protection in the MES test in mice” value [1] read?
A: Its value is “Some protection”.

Q: Which “action on hNaV1.2 current at 10 μM” value (human Nav1.2 [4]) does the source give for `O=C1NC(=O)C(c2ccccc2)(c2ccccc2)N1` [Phenytoin] here?
A: The value was 10.6%.
